22 compounds from patent publication US9920032B2, “Heterocyclic compounds useful as pim kinase inhibitors” (Incyte Corporation, priority 2015, dated 2018) can be followed below.

SMILES strings stand for the structures. pIC50: −log10 of the molar value.

What all share (type): biochemical
Assay [1] deals with Pim-3 (Homo sapiens (Human), UniProt Q86V86). Briefly: Pim-3 kinase assay. As to conditions: 1 mM ATP; read-out: PIM3 IC50. A digest of the protocol: (§1)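 Biotin-BAD peptide (0.05 μM) phosphorylated with 1 mM ATP by 2.5 pM Pim-1 or 1.25 pM Pim-3 in Tris pH 7.5/MgCl2/DTT buffer, 1 h at 25° C. EDTA stop; phospho-BAD (Ser112) antibody with streptavidin donor and Protein-A acceptor beads, 1 h dark at room temperature before AlphaScreen-type bead read.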

The target of assay [2] is Pim-2 (Homo sapiens (Human), UniProt Q9P1W9). Briefly: Pim-2 kinase assay. As to conditions: 1 mM ATP; read-out: PIM2 IC50. A digest of the protocol: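 TR-FRET assay with 1 nM enzyme, 0.05 μM fluorescein-CREBtide and 1 mM ATP in Tris pH 7.5 buffer with MgCl2, DTT, BSA and Tween-20, run 2 h at 25° C. Stopped with EDTA and Tb-labelled anti-CREB pSer133 antibody, then read after 30 min at room temperature.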
Sequence of Pim-2 (Q9P1W9 whole entry): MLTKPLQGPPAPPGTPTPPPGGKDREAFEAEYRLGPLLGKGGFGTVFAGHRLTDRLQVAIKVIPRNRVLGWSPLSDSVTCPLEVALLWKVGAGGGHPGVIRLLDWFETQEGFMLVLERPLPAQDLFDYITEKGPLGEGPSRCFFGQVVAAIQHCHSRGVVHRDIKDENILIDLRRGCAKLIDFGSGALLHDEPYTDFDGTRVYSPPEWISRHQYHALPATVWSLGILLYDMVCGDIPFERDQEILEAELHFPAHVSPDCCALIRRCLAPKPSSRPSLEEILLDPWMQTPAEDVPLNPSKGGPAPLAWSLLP

The target in assay [3] is Pim-1 (Homo sapiens (Human), UniProt P11309). Briefly: Pim-1 kinase assay. As to conditions: 1 mM ATP; read-out: PIM1 IC50. A digest of the protocol: as §1
Sequence of Pim-1 (P11309 whole entry): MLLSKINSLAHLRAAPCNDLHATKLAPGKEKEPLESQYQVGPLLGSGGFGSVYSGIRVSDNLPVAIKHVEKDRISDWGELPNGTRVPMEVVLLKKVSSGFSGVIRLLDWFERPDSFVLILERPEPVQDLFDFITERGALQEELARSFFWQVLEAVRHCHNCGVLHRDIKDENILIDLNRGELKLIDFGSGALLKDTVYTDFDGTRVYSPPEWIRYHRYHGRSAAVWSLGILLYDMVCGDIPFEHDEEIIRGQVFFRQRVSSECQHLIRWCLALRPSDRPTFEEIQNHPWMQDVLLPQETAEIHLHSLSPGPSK

In general, pIC50 refers to the IC50 on a negative log10 scale, so that one unit is a factor of ten. As to `C[C@@H]1C[C@H](N)C[C@H](c2ccncc2NC(=O)c2ccc(F)c3cc(N4CC5(CC(O)C5)C4)cnc23)C1` [Example 103, N-(4-((1R,3S,5S)-3-Amino-5-methylcyclohexyl)pyridin-3-yl)-5-fluoro-3-(6-hydroxy-2-azaspiro[3.3]heptan-2-yl)quinoline-8-carboxamide], the results for the pIC50 in assay [1], in assay [2] and in assay [3] were no less than 8.00, no less than 7.00 and no less than 8.00, respectively.

For `C[C@@H]1C[C@H](N)C[C@H](c2ccncc2NC(=O)c2ccc(F)c3cc(N4CCN(C5CC5)C(=O)C4)cnc23)C1` [Example 114, N-(4-((1R,3S,5S)-3-Amino-5-methylcyclohexyl)pyridin-3-yl)-3-(4-cyclopropyl-3-oxopiperazin-1-yl)-5-fluoroquinoline-8-carboxamide], the pIC50 in assay [1] is no less than 8.00; in assay [2] it was no less than 7.00; in assay [3], no less than 8.00.

`C[C@@H]1C[C@H](N)C[C@H](c2ccncc2NC(=O)c2ccc(F)c3cc(N4CC5(CCC5)C4)cnc23)C1` [Example 107, N-(4-((1R,3S,5S)-3-Amino-5-methylcyclohexyl)pyridin-3-yl)-5-fluoro-3-(2-azaspiro[3.3]heptan-2-yl)quinoline-8-carboxamide]: the figures for the pIC50 in assay [1], in assay [2] and in assay [3] were no less than 8.00, no less than 7.00 and no less than 8.00, respectively.

Consider `CC1CCN(c2cnc3c(C(=O)Nc4cnccc4[C@@H]4C[C@H](C)C[C@H](N)C4)ccc(F)c3c2)CC1` [Example 46, N-(4-((1R,3S,5S)-3-Amino-5-methylcyclohexyl)pyridin-3-yl)-5-fluoro-3-(4-methylpiperidin-1-yl)quinoline-8-carboxamide], for which the pIC50 in assay [1] was no less than 8.00; in assay [2], 6.00 to 7.00; in assay [3] it was no less than 8.00.

Consider `C[C@@H]1C[C@H](N)C[C@H](c2ccncc2NC(=O)c2ccc(F)c3cc(N4CCCN(C)S4(=O)=O)cnc23)C1` [Example 128, N-(4-((1R,3S,5S)-3-Amino-5-methylcyclohexyl)pyridin-3-yl)-5-fluoro-3-(6-methyl-1,1-dioxido-1,2,6-thiadiazinan-2-yl)quinoline-8-carboxamide], for which the pIC50 in assay [1] is no less than 8.00; in assay [2], no less than 7.00; in assay [3], no less than 8.00.

As to `CCC1CCCCN1c1cnc2c(C(=O)Nc3cnccc3[C@@H]3C[C@H](C)C[C@H](N)C3)ccc(F)c2c1` (stereo partly drawn) [Example 57, N-(4-((1R,3S,5S)-3-Amino-5-methylcyclohexyl)pyridin-3-yl)-3-(2-ethylpiperidin-1-yl)-5-fluoroquinoline-8-carboxamide], the negative-log IC50 (pIC50) is 7.30 to 8.00 in assay [1], no less than 7.00 in assay [2] and no less than 8.00 in assay [3].

As for `C[C@@H]1C[C@H](N)C[C@H](c2ccncc2NC(=O)c2ccc(F)c3cc(N4CCN(S(=O)(=O)N(C)C)CC4)cnc23)C1` [Example 74, N-(4-((1R,3S,5S)-3-Amino-5-methylcyclohexyl)pyridin-3-yl)-3-(4-(N,N-dimethylsulfamoyl)piperazin-1-yl)-5-fluoroquinoline-8-carboxamide], the negative-log IC50 (pIC50) in assay [1] is no less than 8.00; in assay [2], 6.00 to 7.00; in assay [3], no less than 8.00.

`C[C@@H]1C[C@H](N)C[C@H](c2ccncc2NC(=O)c2ccc(F)c3cc(N4CCN(C)C(=O)C4)cnc23)C1` [Example 75, N-(4-((1R,3S,5S)-3-Amino-5-methylcyclohexyl)pyridin-3-yl)-5-fluoro-3-(4-methyl-3-oxopiperazin-1-yl)quinoline-8-carboxamide]: the pIC50 was no less than 8.00 in assay [1], no less than 7.00 in assay [2] and no less than 8.00 in assay [3].

Turning to `C[C@@H]1C[C@H](N)C[C@H](c2ccncc2NC(=O)c2ccc(F)c3cc(N4CCCC(O)CC4)cnc23)C1` (stereo partly drawn) [Example 104, N-(4-((1R,3S,5S)-3-Amino-5-methylcyclohexyl)pyridin-3-yl)-5-fluoro-3-(4-hydroxyazepan-1-yl)quinoline-8-carboxamide], the pIC50 in assay [1] was no less than 8.00; in assay [2] it was no less than 7.00; in assay [3], no less than 8.00.

Turning to `CO[C@@H]1CCN(c2cnc3c(C(=O)Nc4cnccc4[C@@H]4C[C@H](C)C[C@H](N)C4)ccc(F)c3c2)C1` [Example 49, N-(4-((1R,3S,5S)-3-amino-5-methylcyclohexyl)pyridin-3-yl)-5-fluoro-3-((R)-3-methoxypyrrolidin-1-yl)quinoline-8-carboxamide], the negative logarithm of the IC50 (pIC50) in assay [1] was no less than 8.00; in assay [2], 6.00 to 7.00; in assay [3] it was no less than 8.00.

Turning to `C[C@@H]1C[C@H](N)C[C@H](c2ccncc2NC(=O)c2ccc(F)c3cc(N(C)C4CCCC4C#N)cnc23)C1` (stereo partly drawn) [Example 140, N-(4-((1R,3S,5S)-3-Amino-5-methylcyclohexyl)pyridin-3-yl)-3-((2-cyanocyclopentyl)(methyl)amino)-5-fluoroquinoline-8-carboxamide], the pIC50 in assay [1] is no less than 8.00; in assay [2], no less than 7.00; in assay [3] it was no less than 8.00.

On to `C[C@@H]1C[C@H](N)C[C@H](c2ccncc2NC(=O)c2ccc(F)c3cc(N4CC(C)(C)C4)cnc23)C1` [Example 116, N-(4-((1R,3S,5S)-3-Amino-5-methylcyclohexyl)pyridin-3-yl)-3-(3,3-dimethylazetidin-1-yl)-5-fluoroquinoline-8-carboxamide], for which the pIC50 in assay [1] was no less than 8.00; in assay [2], no less than 7.00; in assay [3], no less than 8.00.

As to `C[C@@H]1C[C@H](N)C[C@H](c2ccncc2NC(=O)c2ccc(F)c3cc(N(C)c4ncccc4OC(F)F)cnc23)C1` [Example 139, N-(4-((1R,3S,5S)-3-Amino-5-methylcyclohexyl)pyridin-3-yl)-3-((3-(difluoromethoxy)pyridin-2-yl)(methyl)amino)-5-fluoroquinoline-8-carboxamide], the pIC50 in assay [1] was no less than 8.00; in assay [2], no less than 7.00; in assay [3], no less than 8.00.

Regarding `C[C@@H]1C[C@H](N)C[C@H](c2ccncc2NC(=O)c2ccc(F)c3cc(N4CCOCC4)cnc23)C1` [Example 10, N-{4-[(1R,3S,5S)-3-Amino-5-methylcyclohexyl]pyridin-3-yl}-5-fluoro-3-morpholin-4-ylquinoline-8-carboxamide], the values for the pIC50 in assay [1], in assay [2] and in assay [3] were no less than 8.00, 6.00 to 7.00 and no less than 8.00, respectively.

For `C[C@@H]1C[C@H](N)C[C@H](c2ccncc2NC(=O)c2ccc(F)c3cc(N4CCC[C@@H](C)C4)cnc23)C1` [Example 105, N-(4-((1R,3S,5S)-3-Amino-5-methylcyclohexyl)pyridin-3-yl)-5-fluoro-3-((R)-3-methylpiperidin-1-yl)quinoline-8-carboxamide], the pIC50 in assay [1] is no less than 8.00; in assay [2] it was no less than 7.00; in assay [3] it was no less than 8.00.

Turning to `C[C@@H]1C[C@H](N)C[C@H](c2ccncc2NC(=O)c2ccc(F)c3cc(N(C)CC(F)F)cnc23)C1` [Example 42, N-(4-((1R,3S,5S)-3-Amino-5-methylcyclohexyl)pyridin-3-yl)-3-((2,2-difluoroethyl)(methyl)amino)-5-fluoroquinoline-8-carboxamide], the pIC50 was no less than 8.00 in assay [1], no less than 7.00 in assay [2] and no less than 8.00 in assay [3].

For the compound `CC(C)[C@@H](C)Nc1cnc2c(C(=O)Nc3cnccc3[C@@H]3C[C@H](C)C[C@H](N)C3)ccc(F)c2c1` [Example 54, N-(4-((1R,3S,5S)-3-amino-5-methylcyclohexyl)pyridin-3-yl)-5-fluoro-3-((R)-3-methylbutan-2-ylamino)quinoline-8-carboxamide], the negative logarithm of the IC50 (pIC50) in assay [1] is no less than 8.00; in assay [2], 6.00 to 7.00; in assay [3], no less than 8.00.

For the compound `C[C@@H]1C[C@H](N)C[C@H](c2ccncc2NC(=O)c2ccc(F)c3cc(N4CCCc5cccc(F)c54)cnc23)C1` [Example 137, N-(4-((1R,3S,5S)-3-Amino-5-methylcyclohexyl)pyridin-3-yl)-5′,8-difluoro-3,4-dihydro-2H-1,3′-biquinoline-8′-carboxamide], the pIC50 in assay [1] is no less than 8.00; in assay [2] it was no less than 7.00; in assay [3], no less than 8.00.

Regarding `CC1CCC(C)N1c1cnc2c(C(=O)Nc3cnccc3[C@@H]3C[C@H](C)C[C@H](N)C3)ccc(F)c2c1` (stereo partly drawn) [Example 36, N-(4-((1R,3S,5S)-3-Amino-5-methylcyclohexyl)pyridin-3-yl)-3-(2,5-dimethylpyrrolidin-1-yl)-5-fluoroquinoline-8-carboxamide], the pIC50 in assay [1] is 7.30 to 8.00; in assay [2] it was 6.00 to 7.00; in assay [3], no less than 8.00.

Take `CCc1cc2c(F)ccc(C(=O)Nc3cnccc3[C@@H]3C[C@H](C)C[C@H](N)C3)c2nn1` [Example 92, N-{4-[(1R,3S,5S)-3-Amino-5-methylcyclohexyl]pyridin-3-yl}-3-ethyl-5-fluorocinnoline-8-carboxamide]: the pIC50 in assay [1] is 7.30 to 8.00; in assay [2], 5.00 to 6.00; in assay [3] it was no less than 8.00.

As to `COC1(C)CN(c2cnc3c(C(=O)Nc4cnccc4[C@@H]4C[C@H](C)C[C@H](N)C4)ccc(F)c3c2)C1` [Example 118, N-(4-((1R,3S,5S)-3-Amino-5-methylcyclohexyl)pyridin-3-yl)-5-fluoro-3-(3-methoxy-3-methylazetidin-1-yl)quinoline-8-carboxamide], the pIC50 in assay [1] was no less than 8.00; in assay [2], no less than 7.00; in assay [3], no less than 8.00.

For `C[C@@H]1C[C@H](N)C[C@H](c2ccncc2NC(=O)c2ccc(F)c3cc(N4CCCC4=O)cnc23)C1` [Example 78, N-(4-((1R,3S,5S)-3-Amino-5-methylcyclohexyl)pyridin-3-yl)-5-fluoro-3-(2-oxopyrrolidin-1-yl)quinoline-8-carboxamide], the pIC50 was no less than 8.00 in assay [1], 6.00 to 7.00 in assay [2] and no less than 8.00 in assay [3].
